# Reference: US7304075B2, “Stabilized liquid preparation” (Daiichi Pharmaceutical Co., Ltd., priority 2001, dated 2007)
# Tests used:
# Type in all cases: physicochemical
# [1] = Light stability of aqueous sitafloxacin solution (white fluorescent tube irradiation); details: sodium chloride-containing aqueous solution adjusted to pH 4.0, versus aqueous solutions without sodium chloride
# [2] = Water solubility of free sitafloxacin; details: around a neutral pH
# [3] = Light stability of aqueous sitafloxacin solution (white fluorescent tube irradiation); details: 1 mg/ml aqueous solution; for Transmission (%): T % at 430 nm
# Procedure: To 160 ml of WFI were added 213.2 mg of sitafloxacin (active ingredient: 200 mg) and a varied amount of sodium chloride (0 mg for control, 20 mg, 100 mg, 200 mg, 1 g, 2 g, 4 g, 6 g or 10 g) or, for comparison, 10 g of D-sorbitol. Further, 5 ml of 0.1 mol/l aqueous hydrochloric acid was slowly added, followed by stirring for 30 mintues to dissolve sitafloxacin and sodium chloride. The nine kinds of solution each was adjusted to pH 4.0 by addition of 0.1 mol/l aqueous sodium hydroxide, and WFI was added to make 200 ml. Ten milliliter portions of the resulting aqueous solution were put into colorless ampules.
# • (1) pH: Measured with a pH meter (F-16, supplied by Horiba, Ltd.). • (2) Osmotic pressure: Measured with an osmometer (3C2, supplied by Advanced Instrument, Inc.). • (3) (Light) Transmission: A transmission at 430 nm was measured with a Beckman DU-640 spectrophotometer. • (4) Retention: The content of sitafloxacin of the irradiated samples was determined as follows to calculate retention (%).
# A test solution was prepared by accurately measuring 2 ml of a sample, adding an accurately measured equal amount of an internal standard solution, adding a mobile phase to make 20 ml, and mixing a 5 ml aliquot of the resulting solution with the mobile phase to make 20 ml.
# A standard sitafloxacin solution was prepared by dissolving sitafloxacin for quantitative analysis (whose water content had been measured previously) precisely weighing about 0.1 g in the mobile phase to make a solution accurately measuring 100 ml, adding to an accurate 5 ml aliquot of the solution an accurately measured equal amount of the internal standard solution, adding the mobile phase to make 100 ml, and after thoroughly stirring, filtering the solution through a membrane filter. The test solution and the standard solution each measuring 10 μl were subjected to liquid chromatography under the following conditions. Ratios of the peak areas of sitafloxacin of the test solution or the standard solution to the peak area of the internal standard, QT and QS, were obtained, and the sitafloxacin content was determined according to the following equation. Sitafloxacin (C19H18ClF2N3O3) content (% to nominal amount)=amount (mg) of sitafloxacin for quantitative analysis (on dry basis)×(QT/QS)×(¼)×( 1/25)×100 wherein;
# A standard solution was prepared by weighing 0.100 g of sitafloxacin for quantitative analysis (whose water content had been measured previously), adding a mobile phase to accurately make 100 ml, and adding the mobile phase to an accurately measured aliquot (1 ml) of the solution to make 100 ml.
# A 10 μl aliquot of a sample and the standard solution was subjected to liquid chromatography under the following conditions, and the peak areas of the respective solutions were calculated by automatic integration to obtain the total content of sitafloxacin related substances.
# Each of the 1 mg/ml aqueous solutions of sitafloxacin was irradiated with light of a white fluorescent tube (2500 lux×5 days: 300,000 lux·hr), and the same measurements as described above were repeated.
# [4] = Initial, 5% D-sorbitol in place of sodium chloride
# [5] = Irradiated (300,000 lux·hr), 5% D-sorbitol in place of sodium chloride
# [6] = Irradiated (300,000 lux·hr), NaCl 0%
# [7] = Irradiated (300,000 lux·hr), NaCl 0.01%
# [8] = Irradiated (300,000 lux·hr), NaCl 0.05%
# [9] = Irradiated (300,000 lux·hr), NaCl 0.10%
# [10] = Irradiated (300,000 lux·hr), NaCl 0.50%
# [11] = Irradiated (300,000 lux·hr), NaCl 1.0%
# [12] = Irradiated (300,000 lux·hr), NaCl 2.0%
# [13] = Irradiated (300,000 lux·hr), NaCl 3.0%
# [14] = Irradiated (300,000 lux·hr), NaCl 5.0%
smiles,measurement,setting,value
"N[C@@H]1CN(c2c(F)cc3c(=O)c(C(=O)O)cn([C@@H]4C[C@@H]4F)c3c2Cl)CC12CC2 [sitafloxacin, (−)-7-[(7S)-7-amino-5-azaspiro[2.4]heptan-5-yl]-8-chloro-6-fluoro-1-[(1R,2S)-2-fluoro-1-cyclopropyl]-1,4-dihydro-4-oxo-3-quinolinecarboxylic acid]",formation of related substances due to irradiation or the reduction in pH,[1],more suppressed
same,water solubility,[2],poor
same,Total Related substances (%),[3]; [4],0.30%
same,pH,[3]; [4],4.3
same,Transmission (%),[3]; [4],77.2%
same,Total Related substances (%),"[3]; Initial, NaCl 0%",0.31%
same,pH,"[3]; Initial, NaCl 0%",4.2
same,Transmission (%),"[3]; Initial, NaCl 0%",77.6%
same,Total Related substances (%),"[3]; Initial, NaCl 0.01%",0.30%
same,pH,"[3]; Initial, NaCl 0.01%",4.4
same,Transmission (%),"[3]; Initial, NaCl 0.01%",77.1%
same,Total Related substances (%),"[3]; Initial, NaCl 0.05%",0.29%
same,pH,"[3]; Initial, NaCl 0.05%",4.3
same,Transmission (%),"[3]; Initial, NaCl 0.05%",76.8%
same,Total Related substances (%),"[3]; Initial, NaCl 0.10%",0.26%
same,pH,"[3]; Initial, NaCl 0.10%",4.3
same,Transmission (%),"[3]; Initial, NaCl 0.10%",76.7%
same,Total Related substances (%),"[3]; Initial, NaCl 0.50%",0.28%
same,pH,"[3]; Initial, NaCl 0.50%",4.2
same,Transmission (%),"[3]; Initial, NaCl 0.50%",75.6%
same,Total Related substances (%),"[3]; Initial, NaCl 1.0%",0.30%
same,pH,"[3]; Initial, NaCl 1.0%",4.3
same,Transmission (%),"[3]; Initial, NaCl 1.0%",74.7%
same,Total Related substances (%),"[3]; Initial, NaCl 2.0%",0.31%
same,pH,"[3]; Initial, NaCl 2.0%",4.3
same,Transmission (%),"[3]; Initial, NaCl 2.0%",73.1%
same,Total Related substances (%),"[3]; Initial, NaCl 3.0%",0.30%
same,pH,"[3]; Initial, NaCl 3.0%",4.3
same,Transmission (%),"[3]; Initial, NaCl 3.0%",72.8%
same,Total Related substances (%),"[3]; Initial, NaCl 5.0%",0.30%
same,pH,"[3]; Initial, NaCl 5.0%",4.3
same,Transmission (%),"[3]; Initial, NaCl 5.0%",70.7%
same,Retention (per Initial %),[3]; [5],86.6%
same,Total Related substances (%),[3]; [5],5.90%
same,pH,[3]; [5],3.5
same,Transmission (%),[3]; [5],56.8%
same,Retention (per Initial %),[3]; [6],84.2%
same,Total Related substances (%),[3]; [6],5.90%
same,pH,[3]; [6],3.4
same,Transmission (%),[3]; [6],47.1%
same,Retention (per Initial %),[3]; [7],87.9%
same,Total Related substances (%),[3]; [7],5.21%
same,pH,[3]; [7],3.7
same,Transmission (%),[3]; [7],52.8%
same,Retention (per Initial %),[3]; [8],91.7%
same,Total Related substances (%),[3]; [8],3.84%
same,pH,[3]; [8],3.8
same,Transmission (%),[3]; [8],61.0%
same,Retention (per Initial %),[3]; [9],93.5%
same,Total Related substances (%),[3]; [9],3.02%
same,pH,[3]; [9],3.8
same,Transmission (%),[3]; [9],64.4%
same,Retention (per Initial %),[3]; [10],94.2%
same,Total Related substances (%),[3]; [10],2.48%
same,pH,[3]; [10],3.9
same,Transmission (%),[3]; [10],63.6%
same,Retention (per Initial %),[3]; [11],94.7%
same,Total Related substances (%),[3]; [11],2.02%
same,pH,[3]; [11],3.9
same,Transmission (%),[3]; [11],62.6%
same,Retention (per Initial %),[3]; [12],94.0%
same,Total Related substances (%),[3]; [12],2.30%
same,pH,[3]; [12],3.8
same,Transmission (%),[3]; [12],60.7%
same,Retention (per Initial %),[3]; [13],95.5%
same,Total Related substances (%),[3]; [13],2.01%
same,pH,[3]; [13],3.9
same,Transmission (%),[3]; [13],61.0%
same,Retention (per Initial %),[3]; [14],94.8%
same,Total Related substances (%),[3]; [14],2.28%
same,pH,[3]; [14],3.9
same,Transmission (%),[3]; [14],57.6%
